Consider 30 compounds from patent US9079866B2, “Flap modulators” (JANSSEN PHARMACEUTICA NV, priority 2013, dated 2015).

Each structure is given as a SMILES string. Like-named read-outs stand apart in the source and are kept apart here.

In general, Ki refers to a dissociation constant, usually derived from enzyme kinetics or from competition with a known ligand. In general, IC50 refers to the concentration that inhibits the measured activity by half.

The target of one test is human FLAP (Homo sapiens (Human), UniProt P20292). The test is described as follows: FLAP binding assay (HTRF format). Put shortly: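 Read-out is the HTRF ratio. Each reported figure averages two assay plates on which samples were tested in duplicate.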
In test [1] the test system is leukotriene pathway in human whole blood (LTB4 levels). The test is described as follows: Human whole blood assay (A23187-stimulated LTB4). The following applies: read-out: LTB4 IC50 1:1. The class given is cell-based. Put shortly:
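Blood (heparin) diluted 1:1 RPMI; compound pre-incubation 15 min, 37° Celsius; A23187 7 μg/mL, 30 min, 37° Celsius; plasma LTB4 by commercial kit. IC50 via 4-parameter equation.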

Setting [2] is: Homo sapiens, human whole blood diluted 1:1, A23187-stimulated.
Setting [3] is: human FLAP wild type, HTRF format, average of two plates, duplicates.
Setting [4] is: Homo sapiens, human whole blood diluted 1:1 in RPMI, A23187-stimulated LTB4.
Where [5] appears, read: human whole blood diluted 1:1 in RPMI, A23187-stimulated LTB4.

Sequence of human FLAP (P20292 whole entry): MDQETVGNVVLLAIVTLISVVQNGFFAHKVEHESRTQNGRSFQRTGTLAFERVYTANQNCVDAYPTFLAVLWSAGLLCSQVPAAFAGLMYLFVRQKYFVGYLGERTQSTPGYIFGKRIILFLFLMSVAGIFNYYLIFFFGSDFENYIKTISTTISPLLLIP

Regarding `Nc1cnc(-c2ccc(-c3ccccc3C(=O)N3CCOC(CO)C3)cc2F)cn1` (racemic) [Example 798, [2-[4-(5-Aminopyrazin-2-yl)-3-fluoro-phenyl]phenyl]-[2-(hydroxymethyl)morpholin-4-yl]methanone], at human FLAP (wild type FLAP, HTRF format), the affinity corresponds to a Ki of 257 nM. Also, the 50% inhibitory concentration (IC50) in test [1] (setting [2]) was 220 nM.
Compound `Nc1cnc(-c2ccc(-c3ccccc3S(=O)(=O)N3C[C@H](O)[C@@H](O)C3)cc2F)cn1` (relative stereo) [Example 106, (trans)-1-{[4′-(5-Aminopyrazin-2-yl)-3′-fluorobiphenyl-2-yl]sulfonyl}pyrrolidine-3,4-diol] yielded a Ki at human FLAP (setting [3]) of 19 nM. The IC50 in test [1] (setting [4]) is more than 1000 nM.
In the same order, the values of `Nc1cnc(-c2ccc(-c3ccccc3S(=O)(=O)NC3CCc4ccccc43)cc2F)cn1` (stereo in doubt) [Example 22, (S)-4′-(5-Aminopyrazin-2-yl)-N-[(1S)-2,3-dihydro-1H-inden-1-yl]-3′-fluorobiphenyl-2-sulfonamide] are 2 nM and 48 nM.
The matching figures for `C[C@H](NS(=O)(=O)c1ccccc1-c1ccc(-c2cnc(N)cn2)c(F)c1)C(O)c1ccccc1` (stereo in doubt) [Example 83, 4′-(5-Aminopyrazin-2-yl)-3′-fluoro-N-[(1S,2R)-2-hydroxy-1-methyl-2-phenylethyl]biphenyl-2-sulfonamide]: 1 nM and 19 nM.
The matching figures for `NC[C@H]1CCCN1S(=O)(=O)c1ccccc1-c1ccc(-c2cnc(N)cn2)c(F)c1` (stereo in doubt) [Example 94, 5-(2′-{[2-(Aminomethyl)pyrrolidin-1-yl]sulfonyl}-3-fluorobiphenyl-4-yl)pyrazin-2-amine]: 76 nM and 235 nM.
At human FLAP (setting [3]), `CC(CO)NS(=O)(=O)c1ccccc1-c1ccc(-c2ccc(N)nc2)c(F)c1` (stereo in doubt) [Example 352, (R)-4′-(6-Aminopyridin-3-yl)-3′-fluoro-N-(1-hydroxypropan-2-yl)-[1,1′-biphenyl]-2-sulfonamide] returned an inhibition constant Ki of 16 nM. In addition, in test [1] (setting [5]), the IC50 worked out at 64 nM.
The compound `CC(CO)NS(=O)(=O)c1ccccc1-c1ccc(-c2cnc3[nH]ccc3n2)c(F)c1` (stereo in doubt) [Example 378, 3′-Fluoro-N-[(1R)-2-hydroxy-1-methylethyl]-4′-(5H-pyrrolo[2,3-b]pyrazin-2-yl)biphenyl-2-sulfonamide] displayed an inhibitory constant (Ki) at human FLAP (setting [3]) of 1 nM. The half-inhibitory concentration (IC50) in test [1] (setting [4]) is 16 nM.
In the same order, the values of `CC(CO)NS(=O)(=O)c1ccccc1-c1ccc(-c2cnc3[nH]ccc3n2)c(F)c1` (stereo in doubt) [Example 380, 3′-Fluoro-N-[(1S)-2-hydroxy-1-methylethyl]-4′-(5H-pyrrolo[2,3-b]pyrazin-2-yl)biphenyl-2-sulfonamide] are 1 nM and 46 nM.
On human FLAP (wild type FLAP, HTRF format), `CC(CO)NS(=O)(=O)c1ccccc1-c1ccc(-c2cnc(N)c(C#N)n2)c(F)c1` (stereo in doubt) [Example 410, 4′-(5-amino-6-cyanopyrazin-2-yl)-3′-fluoro-N-[(1R)-2-hydroxy-1-methylethyl]biphenyl-2-sulfonamide] returned an inhibition constant (Ki) of 4 nM. Besides, in test [1] (setting [2]), the concentration for half-maximal inhibition (IC50) was determined as 88 nM.
In the same order, the values of `CC(CO)NS(=O)(=O)c1ccccc1-c1ccc(-c2cnc(N)c(C#N)n2)c(F)c1` (stereo in doubt) [Example 412, 4′-(5-Amino-6-cyanopyrazin-2-yl)-3′-fluoro-N-[(1S)-2-hydroxy-1-methylethyl]biphenyl-2-sulfonamide] are 19 nM and 509 nM.
In the same order, the values of `CC(CO)Oc1ncccc1-c1ccc(-c2cnc(N)cn2)c(F)c1` (stereo in doubt) [Example 655, (2R)-2-({3-[4-(5-Aminopyrazin-2-yl)-3-fluorophenyl]pyridin-2-yl}oxy)propan-1-ol] are 503 nM and 1830 nM.
The matching figures for `CC(CO)Oc1ncccc1-c1ccc(-c2cnc(N)cn2)c(F)c1` (stereo in doubt) [Example 657, (2S)-2-({3-[4-(5-Aminopyrazin-2-yl)-3-fluorophenyl]pyridin-2-yl}oxy)propan-1-ol]: 73.5 nM and 2340 nM.
At human FLAP (setting [3]), `CS(=O)(=O)c1ccccc1-c1ccc(-c2cnc(N)cn2)c(F)c1` [Example 1, 5-[3-Fluoro-2′-(methylsulfonyl)biphenyl-4-yl]pyrazin-2-amine] had an inhibition constant Ki of 217 nM. In test [1] (setting [4]), the IC50 was found to be 860 nM.
At human FLAP (setting [3]), `CS(=O)(=O)Nc1ccccc1-c1ccc(-c2cnc(N)cn2)c(F)c1` [Example 2, N-[4′-(5-Aminopyrazin-2-yl)-3′-fluorobiphenyl-2-yl]methanesulfonamide] yielded an inhibitory constant (Ki) of 286 nM. Moreover, the 50% inhibitory concentration (IC50) in test [1] (setting [4]) was 358 nM.
The matching figures for `CC(C)(C)NS(=O)(=O)c1ccccc1-c1ccc(-c2cnc(N)cn2)c(F)c1` [Example 4, 4′-(5-Aminopyrazin-2-yl)-N-tert-butyl-3′-fluorobiphenyl-2-sulfonamide]: 1 nM and 18 nM.
In the case of `Nc1cnc(-c2ccc(-c3ccccc3S(N)(=O)=O)cc2F)cn1` [Example 5, 4′-(5-Aminopyrazin-2-yl)-3′-fluorobiphenyl-2-sulfonamide], at human FLAP (setting [3]), the affinity, expressed as Ki, was 35 nM. In addition, in test [1] (setting [4]), the half-inhibitory concentration (IC50) stood at 370 nM.
For `Nc1cnc(-c2ccc(-c3ccccc3S(=O)(=O)NC3CCCCC3)cc2F)cn1` [Example 6, 4′-(5-Aminopyrazin-2-yl)-N-cyclohexyl-3′-fluorobiphenyl-2-sulfonamide], the Ki on human FLAP (setting [3]) turned out to be 1 nM. The half-inhibitory concentration (IC50) in test [1] (setting [4]) is 33 nM.
The matching figures for `CC(C)CNS(=O)(=O)c1ccccc1-c1ccc(-c2cnc(N)cn2)c(F)c1` [Example 7, 4′-(5-Aminopyrazin-2-yl)-3′-fluoro-N-(2-methylpropyl)biphenyl-2-sulfonamide]: 2 nM and 14 nM.
In the same order, the values of `Nc1cnc(-c2ccc(-c3ccccc3S(=O)(=O)NCC3CCC3)cc2F)cn1` [Example 9, 4′-(5-Aminopyrazin-2-yl)-N-(cyclobutylmethyl)-3′-fluorobiphenyl-2-sulfonamide] are 3 nM and 60 nM.
In the same order, the values of `CC1(NS(=O)(=O)c2ccccc2-c2ccc(-c3cnc(N)cn3)c(F)c2)CCC1` [Example 11, 4′-(5-Aminopyrazin-2-yl)-3′-fluoro-N-(1-methylcyclobutyl)biphenyl-2-sulfonamide] are 2 nM and 15 nM.
At human FLAP (setting [3]), `CCC(C)(C)NS(=O)(=O)c1ccccc1-c1ccc(-c2cnc(N)cn2)c(F)c1` [Example 12, 4′-(5-Aminopyrazin-2-yl)-N-(1,1-dimethylpropyl)-3′-fluorobiphenyl-2-sulfonamide] gave an inhibition constant (Ki) of 2 nM. Also, the IC50 in test [1] (setting [4]) was determined as 21 nM.
As to `CC(C)(NS(=O)(=O)c1ccccc1-c1ccc(-c2cnc(N)cn2)c(F)c1)C(F)(F)F` [Example 13, 4′-(5-Aminopyrazin-2-yl)-3′-fluoro-N-(2,2,2-trifluoro-1,1-dimethylethyl)biphenyl-2-sulfonamide], the inhibition constant Ki on human FLAP (read-out: FLAP Binding wild type HTRF Ki) stood at 1 nM. In addition, the concentration for half-maximal inhibition (IC50) in test [1] (setting [4]) was found to be 18 nM.
Regarding `Nc1cnc(-c2ccc(-c3ccccc3S(=O)(=O)NC3CCCC3)cc2F)cn1` [Example 14, 4′-(5-Aminopyrazin-2-yl)-N-cyclopentyl-3′-fluorobiphenyl-2-sulfonamide], affinity at human FLAP (setting [3]) was put at a Ki of 3 nM. The 50% inhibitory concentration (IC50) in test [1] (setting [4]) came out at 32 nM.
Regarding `CNS(=O)(=O)c1ccccc1-c1ccc(-c2cnc(N)cn2)c(F)c1` [Example 15, 4′-(5-Aminopyrazin-2-yl)-3′-fluoro-N-methylbiphenyl-2-sulfonamide], the affinity at human FLAP (setting [3]) corresponds to a Ki of 10 nM. The IC50 in test [1] (setting [4]) is 59 nM.
The matching figures for `CCNS(=O)(=O)c1ccccc1-c1ccc(-c2cnc(N)cn2)c(F)c1` [Example 16, 4′-(5-Aminopyrazin-2-yl)-N-ethyl-3′-fluorobiphenyl-2-sulfonamide]: 6 nM and 18 nM.
In the case of `Nc1cnc(-c2ccc(-c3ccccc3S(=O)(=O)NCCc3ccccc3)cc2F)cn1` [Example 17, 4′-(5-Aminopyrazin-2-yl)-3′-fluoro-N-(2-phenylethyl)biphenyl-2-sulfonamide], the affinity on human FLAP (setting [3]), expressed as Ki, was 2 nM. In addition, the IC50 in test [1] (setting [4]) turned out to be 25 nM.
Turning to `Nc1cnc(-c2ccc(-c3ccccc3S(=O)(=O)N[C@H](c3ccccc3)C(F)(F)F)cc2F)cn1` [Example 18, (R)-4′-(5-Aminopyrazin-2-yl)-3′-fluoro-N-[(1R)-2,2,2-trifluoro-1-phenylethyl]biphenyl-2-sulfonamide], the inhibition constant Ki at human FLAP (setting [3]) worked out at 2 nM. Also, the IC50 in test [1] (setting [4]) turned out to be 70 nM.
In the same order, the values of `Nc1cnc(-c2ccc(-c3ccccc3S(=O)(=O)N[C@@H](c3ccccc3)C(F)(F)F)cc2F)cn1` [Example 19, (S)-4′-(5-Aminopyrazin-2-yl)-3′-fluoro-N-[(1S)-2,2,2-trifluoro-1-phenylethyl]biphenyl-2-sulfonamide] are 2 nM and 50 nM.
Compound `C[C@@H](NS(=O)(=O)c1ccccc1-c1ccc(-c2cnc(N)cn2)c(F)c1)C(F)(F)F` [Example 20, (S)-4′-(5-Aminopyrazin-2-yl)-3′-fluoro-N-[(1S)-2,2,2-trifluoro-1-methylethyl]biphenyl-2-sulfonamide] displayed a Ki on human FLAP (setting [3]) of 1 nM. Also, the half-inhibitory concentration (IC50) in test [1] (setting [5]) is 9 nM.
Take `Nc1cnc(-c2ccc(-c3ccccc3S(=O)(=O)N[C@@H]3CCc4ccccc43)cc2F)cn1` [Example 23, (R)-4′-(5-Aminopyrazin-2-yl)-N-[(1R)-2,3-dihydro-1H-inden-1-yl]-3′-fluorobiphenyl-2-sulfonamide]: the inhibitory constant (Ki) at human FLAP (setting [3]) worked out at 1 nM. The IC50 in test [1] (setting [4]) worked out at 13 nM.
